Test results reported in ChEMBL document CHEMBL1132731, “Synthesis and antibacterial activities of novel C(3)-aminopyrimidinyl substituted cephalosporins including against respiratory tract pathogens” (2000).
Values after ≈ are worked out from the molar mass of the structure shown.

Experiments:
Type in all cases: functional
[1] = Minimal inhibitory concentration against Enterococcus faecalis 29212
Escherichia coli = assay: Minimal inhibitory concentration against Escherichia coli 3190Y
[2] = Minimal inhibitory concentration against Haemophilus influenza HIN003, beta lactamase producing resistant strain; details: Haemophilus influenzae
Klebsiella pneumoniae = assay: Minimal inhibitory concentration against Klebsiella pneumonia 2011E
[3] = Minimal inhibitory concentration against Proteus vulgaris 6059
Staphylococcus aureus [4] = assay: Minimal inhibitory concentration against methicillin resistant Staphylococcus aureus 77
Streptococcus pneumoniae = assay: Minimal inhibitory concentration against Streptococcus pneumonia PN010, penicillin resistant
Staphylococcus aureus [5] = assay: Minimal inhibitory concentration against methicillin susceptible Staphylococcus aureus giorgio
[6] = Minimal inhibitory concentration against Moraxella catarrhalis 25240

Row | SMILES | MIC [1] [µg/mL] | MIC (Escherichia coli) [µg/mL] | MIC [2] [µg/mL] | MIC (Klebsiella pneumoniae) [µg/mL] | MIC [3] [µg/mL] | MIC (Staphylococcus aureus [4]) [µg/mL] | MIC (Streptococcus pneumoniae) [µg/mL] | MIC (Staphylococcus aureus [5]) [µg/mL] | MIC [6] [µg/mL]
1 | Nc1nc(O)cc(SC2=C(C(=O)O)N3C(=O)C(NC(=O)/C(=N\O)c4nc(N)sc4Cl)C3SC2)n1 (configuration not stated) | 8 (≈ 14.7 µM) | 0.063 (≈ 0.116 µM) | 0.016 (≈ 0.0294 µM) | 1 (≈ 1.83 µM) | 0.063 (≈ 0.116 µM) | 2 (≈ 3.67 µM) | 0.5 (≈ 0.917 µM) | 0.25 (≈ 0.459 µM) | –
2 | Nc1ccnc(SCSC2=C(C(=O)O)N3C(=O)C(NC(=O)/C(=N\O)c4nc(N)sc4Cl)C3SC2)n1 (configuration not stated) | 2 (≈ 3.48 µM) | 1 (≈ 1.74 µM) | 0.25 (≈ 0.435 µM) | 8 (≈ 13.9 µM) | 0.5 (≈ 0.869 µM) | 2 (≈ 3.48 µM) | 1 (≈ 1.74 µM) | 0.25 (≈ 0.435 µM) | 0.5 (≈ 0.869 µM)
3 | C#CCO/N=C(\C(=O)NC1C(=O)N2C(C(=O)O)=C(Sc3cc(N)nc(N)n3)CSC12)c1csc(N)n1 (configuration not stated) | 32 (≈ 58.4 µM) | 0.13 (≈ 0.237 µM) | 0.031 (≈ 0.0566 µM) | 2 (≈ 3.65 µM) | 0.031 (≈ 0.0566 µM) | 4 (≈ 7.3 µM) | 0.25 (≈ 0.457 µM) | 0.5 (≈ 0.913 µM) | 0.016 (≈ 0.0292 µM)
4 | CO/N=C(\C(=O)NC1C(=O)N2C(C(=O)O)=C(SCSc3cc(N)nc(N)n3)CSC12)c1csc(N)n1 (configuration not stated) | 64 (≈ 112 µM) | 0.063 (≈ 0.111 µM) | 1 (≈ 1.76 µM) | 0.5 (≈ 0.878 µM) | 0.016 (≈ 0.0281 µM) | 4 (≈ 7.02 µM) | 0.13 (≈ 0.228 µM) | 0.25 (≈ 0.439 µM) | 0.5 (≈ 0.878 µM)
5 | Nc1nc(O)cc(SCSC2=C(C(=O)O)N3C(=O)C(NC(=O)/C(=N\O)c4nc(N)sc4Cl)C3SC2)n1 (configuration not stated) | 1 (≈ 1.69 µM) | 0.25 (≈ 0.423 µM) | 0.031 (≈ 0.0524 µM) | 2 (≈ 3.38 µM) | 0.13 (≈ 0.22 µM) | 1 (≈ 1.69 µM) | 0.5 (≈ 0.846 µM) | 0.13 (≈ 0.22 µM) | 0.063 (≈ 0.107 µM)
6 | Nc1cc(N)nc(SCSC2=C(C(=O)O)N3C(=O)C(NC(=O)/C(=N\O)c4nc(N)sc4Cl)C3SC2)n1 (configuration not stated) | 4 (≈ 6.78 µM) | 1 (≈ 1.69 µM) | 0.016 (≈ 0.0271 µM) | 8 (≈ 13.6 µM) | 1 (≈ 1.69 µM) | 4 (≈ 6.78 µM) | 1 (≈ 1.69 µM) | 0.5 (≈ 0.847 µM) | 0.13 (≈ 0.22 µM)
7 | CO/N=C(\C(=O)NC1C(=O)N2C(C(=O)O)=C(Sc3cc(N)nc(N)n3)CSC12)c1csc(N)n1 (configuration not stated) | > 64 | 0.031 (≈ 0.0592 µM) | 0.016 (≈ 0.0306 µM) | 0.5 (≈ 0.955 µM) | 0.016 (≈ 0.0306 µM) | 4 (≈ 7.64 µM) | 0.5 (≈ 0.955 µM) | 0.5 (≈ 0.955 µM) | < 0.008
8 | Nc1nc(/C(=N/O)C(=O)NC2C(=O)N3C(C(=O)O)=C(SCSc4nc(O)nc(N)c4N)CSC23)c(Cl)s1 (configuration not stated) | 4 (≈ 6.6 µM) | 0.25 (≈ 0.412 µM) | 0.016 (≈ 0.0264 µM) | 1 (≈ 1.65 µM) | 0.25 (≈ 0.412 µM) | 4 (≈ 6.6 µM) | 2 (≈ 3.3 µM) | 0.5 (≈ 0.825 µM) | 0.13 (≈ 0.214 µM)
9 | C=CC1=C(C(=O)O)N2C(=O)[C@@H](NC(=O)/C(=N\O)c3csc(N)n3)[C@H]2SC1 [CEFDINIR] | 8 (≈ 20.2 µM) | 0.031 (≈ 0.0784 µM) | 0.5 (≈ 1.26 µM) | 0.13 (≈ 0.329 µM) | 0.031 (≈ 0.0784 µM) | 4 (≈ 10.1 µM) | 4 (≈ 10.1 µM) | 0.063 (≈ 0.159 µM) | 0.5 (≈ 1.26 µM)
10 | CCO/N=C(\C(=O)NC1C(=O)N2C(C(=O)O)=C(Sc3cc(N)nc(N)n3)CSC12)c1csc(N)n1 (configuration not stated) | 64 (≈ 119 µM) | 0.13 (≈ 0.242 µM) | 0.063 (≈ 0.117 µM) | 2 (≈ 3.72 µM) | 0.063 (≈ 0.117 µM) | 4 (≈ 7.44 µM) | 0.5 (≈ 0.93 µM) | 0.5 (≈ 0.93 µM) | < 0.008
11 | Nc1cc(SCSC2=C(C(=O)O)N3C(=O)C(NC(=O)/C(=N\O)c4csc(N)n4)C3SC2)nc(N)n1 (configuration not stated) | 1 (≈ 1.8 µM) | 0.031 (≈ 0.0558 µM) | 0.5 (≈ 0.9 µM) | 0.5 (≈ 0.9 µM) | 0.031 (≈ 0.0558 µM) | 1 (≈ 1.8 µM) | 0.5 (≈ 0.9 µM) | 0.13 (≈ 0.234 µM) | 2 (≈ 3.6 µM)
12 | CCO/N=C(\C(=O)NC1C(=O)N2C(C(=O)O)=C(Sc3cc(N)nc(N)n3)CSC12)c1nsc(N)n1 (configuration not stated) | 64 (≈ 119 µM) | 0.063 (≈ 0.117 µM) | 0.13 (≈ 0.241 µM) | 2 (≈ 3.71 µM) | 0.063 (≈ 0.117 µM) | 4 (≈ 7.43 µM) | 0.25 (≈ 0.464 µM) | 1 (≈ 1.86 µM) | < 0.008
13 | Nc1nc(O)cc(SC2=C(C(=O)O)N3C(=O)C(NC(=O)/C(=N\O)c4csc(N)n4)C3SC2)n1 (configuration not stated) | 4 (≈ 7.83 µM) | 0.5 (≈ 0.979 µM) | 1 (≈ 1.96 µM) | 8 (≈ 15.7 µM) | 0.5 (≈ 0.979 µM) | 4 (≈ 7.83 µM) | 1 (≈ 1.96 µM) | 0.5 (≈ 0.979 µM) | < 0.008
14 | Nc1cc(SC2=C(C(=O)O)N3C(=O)C(NC(=O)/C(=N\O)c4nc(N)sc4Cl)C3SC2)nc(N)n1 (configuration not stated) | 2 (≈ 3.68 µM) | 0.25 (≈ 0.46 µM) | 0.5 (≈ 0.919 µM) | 2 (≈ 3.68 µM) | 0.5 (≈ 0.919 µM) | 2 (≈ 3.68 µM) | 1 (≈ 1.84 µM) | 0.25 (≈ 0.46 µM) | < 0.008
15 | Nc1cc(SCSC2=C(C(=O)O)N3C(=O)C(NC(=O)/C(=N\O)c4nc(N)sc4Cl)C3SC2)nc(N)n1 (configuration not stated) | 1 (≈ 1.69 µM) | 0.25 (≈ 0.424 µM) | 0.5 (≈ 0.847 µM) | 1 (≈ 1.69 µM) | 0.25 (≈ 0.424 µM) | 1 (≈ 1.69 µM) | 0.25 (≈ 0.424 µM) | 0.13 (≈ 0.22 µM) | 0.13 (≈ 0.22 µM)
16 | Nc1cc(N)nc(SCSC2=C(C(=O)O)N3C(=O)C(NC(=O)/C(=N\O)c4csc(N)n4)C3SC2)n1 (configuration not stated) | 4 (≈ 7.2 µM) | 0.063 (≈ 0.113 µM) | 1 (≈ 1.8 µM) | 0.5 (≈ 0.9 µM) | 0.031 (≈ 0.0558 µM) | 1 (≈ 1.8 µM) | 1 (≈ 1.8 µM) | 0.13 (≈ 0.234 µM) | 1 (≈ 1.8 µM)
17 | Nc1cc(SC2=C(C(=O)O)N3C(=O)C(NC(=O)/C(=N\O)c4csc(N)n4)C3SC2)nc(N)n1 (configuration not stated) | 8 (≈ 15.7 µM) | 0.031 (≈ 0.0608 µM) | 0.13 (≈ 0.255 µM) | 1 (≈ 1.96 µM) | 0.031 (≈ 0.0608 µM) | 2 (≈ 3.92 µM) | 0.5 (≈ 0.981 µM) | 0.25 (≈ 0.491 µM) | < 0.008
